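Growth conditions: 96-well plates. Treatment: test compound, 48 hours, 5 concentrations. Analysis: linear interpolation between bracketing concentrations; unreached endpoints set to highest concentration. GI50 = concentration required for 50% inhibition of growth.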 The source made the active and inactive calls. Rule as the data show it: active = GI50 up to about 1.1 µM and inactive = higher.
Columns and labels:
Assay in all cases: growth of human tumour cells (NCI), 48 h
[1] = test system: BT-549
[2] = test system: DU-145
[3] = test system: EKVX
[4] = test system: HCT-116
[5] = test system: HCT-15
[6] = test system: HOP-92
[7] = test system: HT-29
[8] = test system: MCF7
[9] = test system: MDA-MB-231
[10] = test system: Malme-3M
[11] = test system: NCI-H460
[12] = test system: NCI/ADR-RES
[13] = test system: SK-MEL-5
[14] = test system: SNB-19
[15] = test system: SNB-75
[16] = test system: UACC-257
[17] = test system: UACC-62
[18] = test system: LOX IMVI
[19] = test system: OVCAR-3
[20] = test system: SF-539

SMILES | GI50 [1] | GI50 [2] | GI50 [3] | GI50 [4] | GI50 [5] [µM] | GI50 [6] | GI50 [7] | GI50 [8] | GI50 [9] | GI50 [10] | GI50 [11] | GI50 [12] | GI50 [13] | GI50 [14] | GI50 [15] | GI50 [16] | GI50 [17] | GI50 [18] | GI50 [19] | GI50 [20]
Nn1c(CCCCCCCCc2nnc(COc3c(O)ccc4ccccc34)n2N)nnc1COc1c(O)ccc2ccccc12 | > 100 µM (inactive) | > 100 µM (inactive) | > 100 µM (inactive) | 49.5 µM (inactive) | > 100 | > 100 µM (inactive) | > 100 µM (inactive) | > 100 µM (inactive) | > 100 µM (inactive) | > 100 µM (inactive) | 57.9 µM (inactive) | > 100 µM (inactive) | > 100 µM (inactive) | > 100 µM (inactive) | > 100 µM (inactive) | > 100 µM (inactive) | > 100 µM (inactive) |  |  | 
CCOC(=O)C(CCSC)(CCSC)C(=O)OCC | > 100 µM (inactive) | > 100 µM (inactive) | > 100 µM (inactive) | > 100 µM (inactive) | > 100 |  | > 100 µM (inactive) | > 100 µM (inactive) | > 100 µM (inactive) | > 100 µM (inactive) | > 100 µM (inactive) | > 100 µM (inactive) | > 100 µM (inactive) | > 100 µM (inactive) | > 100 µM (inactive) | > 100 µM (inactive) | 18.7 µM (inactive) | > 100 µM (inactive) | > 100 µM (inactive) | > 100 µM (inactive)
CC(=O)NC1C(OCC(=O)NCCNc2ccc([N+](=O)[O-])c3[nH]c4ccccc4c(=O)c23)C(O)C(CO)OC1(C)OCc1ccccc1 (stereo not drawn) | > 100 µM (inactive) | > 100 µM (inactive) | > 100 µM (inactive) | > 100 µM (inactive) | > 100 |  | > 100 µM (inactive) | > 100 µM (inactive) | > 100 µM (inactive) | > 10 µM (inactive) | 50.4 µM (inactive) | > 100 µM (inactive) | > 100 µM (inactive) | > 100 µM (inactive) | > 100 µM (inactive) | > 100 µM (inactive) | > 100 µM (inactive) | > 100 µM (inactive) | > 100 µM (inactive) | > 100 µM (inactive)
O=[N+]([O-])c1ccc2c(c1)c(OCc1ccccc1)nn2Cc1ccccc1 | 71.8 µM (inactive) | > 100 µM (inactive) |  |  | 53 |  | > 100 µM (inactive) | > 100 µM (inactive) | > 100 µM (inactive) | 78.5 µM (inactive) | > 100 µM (inactive) | > 100 µM (inactive) | 58.2 µM (inactive) | > 100 µM (inactive) |  | > 100 µM (inactive) | 80.4 µM (inactive) | > 100 µM (inactive) | > 100 µM (inactive) | 34.5 µM (inactive)
CCCCCCCCCCCCCCCCC(=O)NCC(=O)NCC(=O)NC(Cc1ccccc1)C(=O)Oc1ccc([N+](=O)[O-])cc1 (stereo not drawn) | 16.7 µM (inactive) | > 100 µM (inactive) | 37.8 µM (inactive) | 18.6 µM (inactive) | 19.1 | 32.1 µM (inactive) | 29.3 µM (inactive) | 48.4 µM (inactive) | 23.4 µM (inactive) |  | 18.3 µM (inactive) | 20.6 µM (inactive) | 21.6 µM (inactive) | > 10 µM (inactive) | 45.2 µM (inactive) | 23.9 µM (inactive) | 20.7 µM (inactive) | 20.4 µM (inactive) | > 100 µM (inactive) | 27.6 µM (inactive)
COC(=O)c1cc2c(cc1CC1Cc3cc4c(cc3C1=O)CCC4)CCC2 (stereo not drawn) | 40.1 µM (inactive) | > 100 µM (inactive) | 67.5 µM (inactive) | 33.4 µM (inactive) | 36.3 |  | 31.7 µM (inactive) | 34 µM (inactive) | 53.8 µM (inactive) | 53 µM (inactive) | 40 µM (inactive) | 38.1 µM (inactive) | 17.6 µM (inactive) | > 100 µM (inactive) | 54.1 µM (inactive) | 39.1 µM (inactive) | 47.2 µM (inactive) | 41.4 µM (inactive) | 57.4 µM (inactive) | 58.9 µM (inactive)
CCOC(=O)c1c(NC(=O)OC)c(C#N)c2n1CCCCC2 | > 100 µM (inactive) | 22.8 µM (inactive) | > 100 µM (inactive) | > 100 µM (inactive) | > 100 | 93.3 µM (inactive) | > 100 µM (inactive) | > 100 µM (inactive) | 35.7 µM (inactive) |  | > 100 µM (inactive) | > 100 µM (inactive) | > 100 µM (inactive) | > 100 µM (inactive) | > 100 µM (inactive) | > 100 µM (inactive) | > 100 µM (inactive) | > 100 µM (inactive) |  | > 100 µM (inactive)
CCNC1=C(NC(=O)CC)C(=O)c2ccccc2C1=O | > 100 µM (inactive) | > 100 µM (inactive) | > 100 µM (inactive) | 36.7 µM (inactive) | 64.3 | > 100 µM (inactive) | 34.8 µM (inactive) | > 100 µM (inactive) | > 100 µM (inactive) | 22.9 µM (inactive) | > 100 µM (inactive) | 58.7 µM (inactive) | 54.1 µM (inactive) | > 100 µM (inactive) | > 100 µM (inactive) | 30.2 µM (inactive) | 74.5 µM (inactive) |  | 32.1 µM (inactive) | > 100 µM (inactive)
CN(N=O)C(=O)Nc1ccc(C(=O)O)cc1 | > 100 µM (inactive) | > 100 µM (inactive) | > 100 µM (inactive) | > 100 µM (inactive) | > 100 | > 100 µM (inactive) | > 100 µM (inactive) | > 100 µM (inactive) | > 100 µM (inactive) |  | > 100 µM (inactive) | > 100 µM (inactive) | > 100 µM (inactive) | > 100 µM (inactive) | > 100 µM (inactive) | > 100 µM (inactive) | > 100 µM (inactive) | > 100 µM (inactive) | > 100 µM (inactive) | > 100 µM (inactive)
CCCCCCC(=O)c1ccc2ccccc2c1O | 76 µM (inactive) | 26.6 µM (inactive) | 25.4 µM (inactive) | 53 µM (inactive) | 32.8 | 93.3 µM (inactive) | 25.1 µM (inactive) | 33.4 µM (inactive) | 85.5 µM (inactive) |  | 52.4 µM (inactive) | 51.2 µM (inactive) | > 100 µM (inactive) | > 100 µM (inactive) | 43.1 µM (inactive) | 32.7 µM (inactive) | 47 µM (inactive) | 42.1 µM (inactive) |  | 52.7 µM (inactive)
CN(c1ccc(Cl)cc1)S(=O)(=O)c1ccccc1 | 32 µM (inactive) | > 100 µM (inactive) | 37.6 µM (inactive) | 37.5 µM (inactive) | 52.2 |  | 42.3 µM (inactive) | 52.4 µM (inactive) | 35.4 µM (inactive) | > 100 µM (inactive) | 43.1 µM (inactive) | 36 µM (inactive) | 18.7 µM (inactive) | 97.7 µM (inactive) | 61.4 µM (inactive) | > 100 µM (inactive) | 48.4 µM (inactive) | 42.8 µM (inactive) | 64.3 µM (inactive) | 43 µM (inactive)
CCOC(=O)C1=NN(c2ccc([N+](=O)[O-])cc2)[C@@]2(C)C[C@]3(c4ccccc4)N(c4ccc([N+](=O)[O-])cc4)N=C(C(=O)OCC)N3c3ccccc3N12 | > 100 µM (inactive) | > 100 µM (inactive) | > 100 µM (inactive) | > 100 µM (inactive) | > 100 |  | > 100 µM (inactive) | > 100 µM (inactive) | 4.51 µM (inactive) | > 100 µM (inactive) |  | > 100 µM (inactive) | > 100 µM (inactive) | > 100 µM (inactive) | > 100 µM (inactive) | > 100 µM (inactive) | > 100 µM (inactive) | > 100 µM (inactive) | > 100 µM (inactive) | > 100 µM (inactive)
Cc1ccccc1N/N=C1\C(=O)Nc2ccccc21 | > 100 µM (inactive) | > 100 µM (inactive) | > 100 µM (inactive) | > 100 µM (inactive) | > 100 |  | > 100 µM (inactive) | > 100 µM (inactive) | > 100 µM (inactive) |  | > 100 µM (inactive) | > 100 µM (inactive) | > 100 µM (inactive) | > 100 µM (inactive) | > 100 µM (inactive) | > 100 µM (inactive) | > 100 µM (inactive) | > 100 µM (inactive) | > 100 µM (inactive) | 
O/N=N\c1nc(-c2ccccn2)nc2ccccc12 | 20.8 µM (inactive) | 15 µM (inactive) | 18.2 µM (inactive) | 3.33 µM (inactive) | 1.53 |  | 0.611 µM (active) | 4.76 µM (inactive) | 13.3 µM (inactive) | 1.24 µM (inactive) | 2.49 µM (inactive) | 7.78 µM (inactive) | 2.77 µM (inactive) | 42.3 µM (inactive) | 20.3 µM (inactive) | 7.69 µM (inactive) | 7.18 µM (inactive) |  | 0.743 µM (active) | 17.1 µM (inactive)
CCCCC/C=C1/CC(CO)(COC(=O)CC(C(C)C)C(C)C)OC1=O (stereo not drawn) | 14.8 µM (inactive) | 13.4 µM (inactive) | 14.2 µM (inactive) | 14.8 µM (inactive) | 18.7 | 7.35 µM (inactive) | 19.5 µM (inactive) | 17.1 µM (inactive) | 15.6 µM (inactive) | 3.27 µM (inactive) | 13.2 µM (inactive) | 17.9 µM (inactive) | 9.95 µM (inactive) | 7.62 µM (inactive) | 10.3 µM (inactive) | 21.4 µM (inactive) | 13.7 µM (inactive) |  | 17.7 µM (inactive) | 

Reference: ChEMBL document CHEMBL1201862, “PubChem BioAssay data set” (2004)
